Here are results for 29 compounds from PMC4994520 (European journal of medicinal chemistry, 2012).

Structures are written as SMILES. A value given as a limit tells only on which side of the number the result lay.

For this experiment, the target named is human PDE5 (Homo sapiens, UniProt O76074). In words: PDE5 inhibition, IMAP fluorescence polarization phosphodiesterase assay. The following applies: for inhibition at 10 µM: read-out: % PDE5 inhibition at 10 μM. It is filed as biochemical.

For the compound `COC(=O)[C@H]1Cc2c([nH]c3ccccc23)[C@@H](c2ccc(Br)cc2)N1` [Compound 1, Methyl (1R,3R)-1-(4-bromophenyl)-2,3,4,9-tetrahydro-1H-β-carboline-3-carboxylate], the inhibition at 10 µM was 10%. Regarding `COC(=O)[C@H]1Cc2c([nH]c3ccccc23)[C@H](c2ccc(Br)cc2)N1` [Compound 2, Methyl (1S,3R)-1-(4-bromophenyl)-2,3,4,9-tetrahydro-1H-β-carboline-3-carboxylate], the inhibition at 10 µM amounted to 10%. Still for that read-out and setting: then `COC(=O)[C@@H]1Cc2c([nH]c3ccccc23)[C@H](c2ccc(Br)cc2)N1` [Compound 3, Methyl (1S,3S)-1-(4-bromophenyl)-2,3,4,9-tetrahydro-1H-β-carboline-3-carboxylate], with 17%. As to `COC(=O)[C@@H]1Cc2c([nH]c3ccccc23)[C@@H](c2ccc(Br)cc2)N1` [Compound 4, Methyl (1R,3S)-1-(4-bromophenyl)-2,3,4,9-tetrahydro-1H-β-carboline-3-carboxylate], the IC50 stood at 4200 nM and the inhibition at 10 µM came to 75%. As for `CCN1C(=O)[C@H]2Cc3c([nH]c4ccccc34)[C@@H](c3ccc(Br)cc3)N2C1=O` [Compound 5, (5R,11aR)-5-(4-Bromophenyl)-2-ethyl-5,6,11,11a-tetrahydro-1H-imidazo[1′,5′:1,6]pyrido[3,4-b]indole-1,3(2H)-dione], the IC50 was 2800 nM and the inhibition at 10 µM came to 94.4%.

Consider `CCN1C(=O)[C@H]2Cc3c([nH]c4ccccc34)[C@H](c3ccc(Br)cc3)N2C1=O` [Compound 6, (5S,11aR)-5-(4-Bromophenyl)-2-ethyl-5,6,11,11a-tetrahydro-1H-imidazo[1′,5′:1,6]pyrido[3,4-b]indole-1,3(2H)-dione], for which the IC50 was 3900 nM and the inhibition at 10 µM is 89.3%.

With `CCN1C(=O)[C@@H]2Cc3c([nH]c4ccccc34)[C@H](c3ccc(Br)cc3)N2C1=O` [Compound 7, (5S,11aS)-5-(4-Bromophenyl)-2-ethyl-5,6,11,11a-tetrahydro-1H-imidazo[1′,5′:1,6]pyrido[3,4-b]indole-1,3(2H)-dione], the inhibition at 10 µM amounted to 79.8%. `CCCCN1C(=O)[C@H]2Cc3c([nH]c4ccccc34)[C@@H](c3ccc(Br)cc3)N2C1=O` [Compound 9, (5R,11aR)-5-(4-Bromophenyl)-2-butyl-5,6,11,11a-tetrahydro-1H-imidazo[1′,5′:1,6]pyrido[3,4-b]indole-1,3(2H)-dione]: it took 230 nM to reach half-maximal inhibition (IC50) and the inhibition at 10 µM was found to be 98.7%. In the case of `CCCCN1C(=O)[C@H]2Cc3c([nH]c4ccccc34)[C@H](c3ccc(Br)cc3)N2C1=O` [Compound 10, (5S,11aR)-5-(4-Bromophenyl)-2-butyl-5,6,11,11a-tetrahydro-1H-imidazo[1′,5′:1,6]pyrido[3,4-b]indole-1,3(2H)-dione], the IC50 was above 10000 nM and the inhibition at 10 µM is 72.1%. Turning to `CCCCN1C(=O)[C@@H]2Cc3c([nH]c4ccccc34)[C@H](c3ccc(Br)cc3)N2C1=O` [Compound 11, (5S,11aS)-5-(4-Bromophenyl)-2-butyl-5,6,11,11a-tetrahydro-1H-imidazo[1′,5′:1,6]pyrido[3,4-b]indole-1,3(2H)-dione], the IC50 was above 10000 nM and the inhibition at 10 µM came out at 81.5%. On to `CCCCN1C(=O)[C@@H]2Cc3c([nH]c4ccccc34)[C@@H](c3ccc(Br)cc3)N2C1=O` [Compound 12, (5R,11aS)-5-(4-Bromophenyl)-2-butyl-5,6,11,11a-tetrahydro-1H-imidazo[1′,5′:1,6]pyrido[3,4-b]indole-1,3(2H)-dione], for which the inhibition at 10 µM worked out at 106%. Consider `CCC(C)N1C(=O)[C@H]2Cc3c([nH]c4ccccc34)[C@@H](c3ccc(Br)cc3)N2C1=O` (stereo partly drawn) [Compound 13, (5R,11aR)-5-(4-Bromophenyl)-2-sec-butyl-5,6,11,11a-tetrahydro-1H-imidazo[1′,5′:1,6]pyrido[3,4-b]indole-1,3(2H)-dione], for which the IC50 came to 370 nM and the inhibition at 10 µM was 83%. With `CCC(C)N1C(=O)[C@H]2Cc3c([nH]c4ccccc34)[C@H](c3ccc(Br)cc3)N2C1=O` (stereo partly drawn) [Compound 14, (5S,11aR)-5-(4-Bromophenyl)-2-sec-butyl-5,6,11,11a-tetrahydro-1H-imidazo[1′,5′:1,6]pyrido[3,4-b]indole-1,3(2H)-dione], the midpoint of inhibition, the IC50, lay at 6000 nM and the inhibition at 10 µM stood at 67%.

On to `CCC(C)N1C(=O)[C@@H]2Cc3c([nH]c4ccccc34)[C@H](c3ccc(Br)cc3)N2C1=O` (stereo partly drawn) [Compound 15, (5S,11aS)-5-(4-Bromophenyl)-2-sec-butyl-5,6,11,11a-tetrahydro-1H-imidazo[1′,5′:1,6]pyrido[3,4-b]indole-1,3(2H)-dione], for which half-maximal inhibition (IC50) was put at 3300 nM and the inhibition at 10 µM is 72%. As for `CCC(C)N1C(=O)[C@@H]2Cc3c([nH]c4ccccc34)[C@@H](c3ccc(Br)cc3)N2C1=O` (stereo partly drawn) [Compound 16, (5R,11aS)-5-(4-Bromophenyl)-2-sec-butyl-5,6,11,11a-tetrahydro-1H-imidazo[1′,5′:1,6]pyrido[3,4-b]indole-1,3(2H)-dione], half-maximal inhibition (IC50) was put at 150 nM and the inhibition at 10 µM came to 92%. As for `CC(C)(C)N1C(=O)[C@H]2Cc3c([nH]c4ccccc34)[C@@H](c3ccc(Br)cc3)N2C1=O` [Compound 17, (5R,11aR)-5-(4-Bromophenyl)-2-tert-butyl-5,6,11,11a-tetrahydro-1H-imidazo[1′,5′:1,6]pyrido[3,4-b]indole-1,3(2H)-dione], the IC50 is 270 nM and the inhibition at 10 µM was 91%. In the case of `CC(C)(C)N1C(=O)[C@H]2Cc3c([nH]c4ccccc34)[C@H](c3ccc(Br)cc3)N2C1=O` [Compound 18, (5S,11aR)-5-(4-Bromophenyl)-2-tert-butyl-5,6,11,11a-tetrahydro-1H-imidazo[1′,5′:1,6]pyrido[3,4-b]indole-1,3(2H)-dione], the half-inhibitory concentration (IC50) stood at 2200 nM and the inhibition at 10 µM stood at 78%. For the compound `CC(C)(C)N1C(=O)[C@@H]2Cc3c([nH]c4ccccc34)[C@H](c3ccc(Br)cc3)N2C1=O` [Compound 19, (5S,11aS)-5-(4-Bromophenyl)-2-tert-butyl-5-(4-bromophenyl)-5,6,11,11a-tetrahydro-1H-imidazo[1′,5′:1,6]pyrido[3,4-b]indole-1,3(2H)-dione], the “% PDE5 inhibition at 10 μM” value (10 μM, triplicate) was 38%.

As to `CC(C)(C)N1C(=O)[C@@H]2Cc3c([nH]c4ccccc34)[C@@H](c3ccc(Br)cc3)N2C1=O` [Compound 20, (5R,11aS)-5-(4-Bromophenyl)-2-tert-butyl-5,6,11,11a-tetrahydro-1H-imidazo[1′,5′:1,6]pyrido[3,4-b]indole-1,3(2H)-dione], the IC50 is 270 nM and the inhibition at 10 µM worked out at 94%. Turning to `COC(=O)[C@H]1Cc2c([nH]c3ccccc23)[C@@H](c2ccc(Br)cc2)N1C(=O)CCl` [Compound 21, Methyl (1R,3R)-1-(4-bromophenyl)-2-(chloroacetyl)-2,3,4,9-tetrahydro-1H-β-carboline-3-carboxylate], the IC50 is above 10000 nM and the inhibition at 10 µM worked out at 25%. `COC(=O)[C@@H]1Cc2c([nH]c3ccccc23)[C@H](c2ccc(Br)cc2)N1C(=O)CCl` [Compound 23, Methyl (1S,3S)-1-(4-bromophenyl)-2-(2-chloroacetyl)-2,3,4,9-tetrahydro-1H-β-carboline-3-carboxylate]: the 50% inhibitory concentration (IC50) is above 10000 nM and the inhibition at 10 µM was found to be 19%. `CN1CC(=O)N2[C@@H](c3ccc(Br)cc3)c3[nH]c4ccccc4c3C[C@@H]2C1=O` [Compound 26, (6S,12aR)-6-(4-Bromophenyl)-2-methyl-2,3,6,7,12,12a-hexahydropyrazino [1′,2′:1,6]pyrido[3,4-b]indole-1,4-dione]: the IC50 worked out at 6600 nM and the inhibition at 10 µM stood at 94%.

Consider `CN1CC(=O)N2[C@@H](c3ccc(Br)cc3)c3[nH]c4ccccc4c3C[C@H]2C1=O` [Compound 27, (6S,12aS)-6-(4-Bromophenyl)-2-methyl-2,3,6,7,12,12a-hexahydropyrazino [1′,2′:1,6]pyrido[3,4-b]indole-1,4-dione], for which inhibition was half-maximal at 1900 nM (IC50) and the inhibition at 10 µM was 87%. As for `CCN1CC(=O)N2[C@@H](c3ccc(Br)cc3)c3[nH]c4ccccc4c3C[C@@H]2C1=O` [Compound 30, (6S,12aR)-2-Ethyl-6-(4-bromophenyl)-2,3,6,7,12,12a-hexahydropyrazino [1′,2′:1,6]pyrido[3,4-b]indole-1,4-dione], the IC50 amounted to 1900 nM and the inhibition at 10 µM came out at 97.9%. As to `CCN1CC(=O)N2[C@@H](c3ccc(Br)cc3)c3[nH]c4ccccc4c3C[C@H]2C1=O` [Compound 31, (6S,12aS)-2-Ethyl-6-(4-bromophenyl)-2,3,6,7,12,12a-hexahydropyrazino [1′,2′:1,6]pyrido[3,4-b]indole-1,4-dione], the half-maximal inhibitory concentration (IC50) came out at 220 nM and the inhibition at 10 µM came out at 83%. On to `CCN1CC(=O)N2[C@H](c3ccc(Br)cc3)c3[nH]c4ccccc4c3C[C@H]2C1=O` [Compound 32, (6R,12aS)-2-Ethyl-6-(4-bromophenyl)-2,3,6,7,12,12a-hexahydropyrazino [1′,2′:1,6]pyrido[3,4-b]indole-1,4-dione], for which the IC50 was below 10 nM and the inhibition at 10 µM was 98.7%.

Consider `CCCCN1CC(=O)N2[C@@H](c3ccc(Br)cc3)c3[nH]c4ccccc4c3C[C@@H]2C1=O` [Compound 34, (6S,12aR)-2-Butyl-6-(4-bromophenyl)-2,3,6,7,12,12a-hexahydropyrazino [1′,2′:1,6]pyrido[3,4-b]indole-1,4-dione], for which the IC50 stood at 6600 nM and the inhibition at 10 µM was 81.5%. Take `CCCCN1CC(=O)N2[C@@H](c3ccc(Br)cc3)c3[nH]c4ccccc4c3C[C@H]2C1=O` [Compound 35, (6S,12aS)-2-Butyl-6-(4-bromophenyl)-2,3,6,7,12,12a-hexahydropyrazino[1′,2′:1,6]pyrido[3,4-b]indole-1,4-dione]: the midpoint of inhibition, the IC50, lay at 5900 nM and the inhibition at 10 µM amounted to 80%. Take `CCCCN1CC(=O)N2[C@H](c3ccc(Br)cc3)c3[nH]c4ccccc4c3C[C@H]2C1=O` [Compound 36, (6R,12aS)-2-Butyl-6-(4-bromophenyl)-2,3,6,7,12,12a-hexahydropyrazino [1′,2′:1,6]pyrido[3,4-b]indole-1,4-dione]: the inhibition at 10 µM turned out to be 92%.

One may read the inhibition as the drop in the measured response relative to a control, in per cent. As usually defined, the IC50 is the midpoint of a concentration-inhibition curve.
